One assay has as its target ER (Homo sapiens (Human), UniProt P03372). Briefly: In-cell western blot analysis of ER for "B" compounds. The assay is classed as cell-based. The conditions noted are these: 16 hours, read-out: ICW DC50. An outline of the steps: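 ER levels given as a percentage of untreated/DMSO-treated wells (100%). Detection used primary antibodies for 2 h at room temperature followed by 680 and 800 nm fluorescent secondaries at 1:1000 for 1 h, read by LI-COR imaging.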

Assay [1] in a line: Cell growth assay (WST-8) for "B" compounds. The assay is classed as cell-based. The conditions noted are these: T47D, read-out: Cell growth Inhibition in T47D cell line IC50. An outline of the steps: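 Four-day compound exposure of cells plated at 1500/well the day before. Read-out is WST-8 (10%, 2.5 h, 37 °C) absorbance at 450 nm, normalized to vehicle control over three independent repeats.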

Like-named read-outs stand apart in the source and are kept apart here. Bounds are passed on as bounds.

Chain of ER (P03372 whole entry): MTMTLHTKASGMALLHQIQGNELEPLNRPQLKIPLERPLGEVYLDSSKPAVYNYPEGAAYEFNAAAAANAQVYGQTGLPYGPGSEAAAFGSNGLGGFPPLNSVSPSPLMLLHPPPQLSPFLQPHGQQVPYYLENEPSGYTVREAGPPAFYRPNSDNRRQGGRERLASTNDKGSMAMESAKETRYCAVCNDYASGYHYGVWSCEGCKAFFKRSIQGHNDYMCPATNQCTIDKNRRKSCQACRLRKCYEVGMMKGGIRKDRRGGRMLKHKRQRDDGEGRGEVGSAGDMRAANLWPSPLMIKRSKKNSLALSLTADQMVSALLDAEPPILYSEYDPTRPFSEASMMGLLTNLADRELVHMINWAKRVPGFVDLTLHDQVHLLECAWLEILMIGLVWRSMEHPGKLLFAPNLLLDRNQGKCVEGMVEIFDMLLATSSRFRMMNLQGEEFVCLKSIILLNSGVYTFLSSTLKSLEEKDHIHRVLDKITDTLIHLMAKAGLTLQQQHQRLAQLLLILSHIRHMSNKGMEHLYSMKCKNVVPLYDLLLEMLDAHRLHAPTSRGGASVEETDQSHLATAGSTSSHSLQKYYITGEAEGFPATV

For `O=C1CCC(N2Cc3c(ccc4c3OCC43CCN(C(=O)CN4CCC5(CC4)CN(c4ccc([C@@H]6c7ccc(O)cc7CC[C@@H]6c6ccccc6)cc4)C5)CC3)C2=O)C(=O)N1` (stereo partly drawn) [Compound B214, 3-(1′-(2-(2-(4-((1R,2S)-6-hydroxy-2-phenyl-1,2,3,4-tetrahydronaphthalen-1-yl)phenyl)-2,7-diazaspiro[3.5]nonan-7-yl)acctyl)-6-oxo-6,8-dihydro-2H,7H-spiro[furo[2,3-e]isoindole-3,4′-piperidin]-7-yl)piperidine-2,6-dione], the DC50 on ER was < 10 nM. Also, the IC50 in assay [1] (T47D cell line) is < 1 nM.

For the compound `O=C1CCC(N2Cc3cc4c(cc3C2=O)OC[C@@H]2CN(CC(=O)N3CC5(CC(Nc6ccc([C@@H]7c8ccc(O)cc8CC[C@@H]7c7ccccc7)cc6)C5)C3)CCN42)C(=O)N1` (stereo partly drawn) [Compound B153, 3-((S)-3-(2-(6-((4-((1R,2S)-6-hydroxy-2-phenyl-1,2,3,4-tetrahydronaphthalen-1-yl)phenyl)amino)-2-azaspiro[3.3]heptan-2-yl)-2-oxoethyl)-8-oxo-1,2,3,4,4a,5,8,10-octahydro-9H-pyrazino[1′,2′:4,5][1,4]oxazino[2,3-f]isoindol-9-yl)piperidine-2,6-dione], the DC50 at ER was < 10 nM. For the same compound, the IC50 in assay [1] (T47D cell line) was < 1 nM.

With `O=C1CCC(N2Cc3c(ccc4c3OCC43CCN(CC4CCC5(CCN(c6ccc([C@@H]7c8ccc(O)cc8CC[C@@H]7c7ccccc7)cc6)CC5)C4)CC3)C2=O)C(=O)N1` (stereo partly drawn) [Compound B364, 3-(1′-((8-(4-((1R,2S)-6-hydroxy-2-phenyl-1,2,3,4-tetrahydronaphthalen-1-yl)phenyl)-8-azaspiro[4.5]decan-2-yl)methyl)-6-oxo-6,8-dihydro-2H,7H-spiro[furo[2,3-e]isoindole-3,4′-piperidin]-7-yl)piperidine-2,6-dione], on ER, the DC50 is > 100 nM. Moreover, in assay [1], the IC50 fell in the range of 1 to 10 nM.

As for `O=C1CC[C@H](NC(=O)c2ccc3c(n2)OC[C@H]2CN(CC4CCN(c5ccc([C@@H]6c7ccc(O)cc7CC[C@@H]6c6ccccc6)cc5)CC4)CCN32)C(=O)N1` [Compound B224, (R)-N-((S)-2,6-dioxopiperidin-3-yl)-3-((1-(4-((1R,2S)-6-hydroxy-2-phenyl-1,2,3,4-tetrahydronaphthalen-1-yl)phenyl)piperidin-4-yl)methyl)-1,2,3,4,4a,5-hexahydropyrazino[1,2-d]pyrido[2,3-b][1,4]oxazine-8-carboxamide], the DC50 at ER is > 100 nM. The IC50 in assay [1] (T47D cell line) fell in the range of 1 to 10 nM.

As for `O=C1CCC(N2Cc3cc4c(cc3C2=O)OC[C@@H]2CN(C3CN(C5CCN(c6ccc([C@@H]7c8ccc(O)cc8CC[C@@H]7c7ccccc7)cc6)CC5)C3)CCN42)C(=O)N1` (stereo partly drawn) [Compound B167, 3-((S)-3-(1-(1-(4-((1R,2S)-6-hydroxy-2-phenyl-1,2,3,4-tetrahydronaphthalen-1-yl)phenyl)piperidin-4-yl)azetidin-3-yl)-8-oxo-1,2,3,4,4a,5,8,10-octahydro-9H-pyrazino[1′,2′:4,5][1,4]oxazino[2,3-f]isoindol-9-yl)piperidine-2,6-dione], the DC50 on ER was < 10 nM. Moreover, the IC50 in assay [1] (T47D cell line) is < 1 nM.

For `O=C1CCC(N2Cc3c(ccc4c3OCC43CCN(CC4CCC5(CCN(c6ccc([C@@H]7c8ccc(O)cc8CC[C@@H]7c7ccccc7)cc6)CC5)O4)CC3)C2=O)C(=O)N1` (stereo partly drawn) [Compound B178, 3-(1′-((8-(4-((1R,2S)-6-hydroxy-2-phenyl-1,2,3,4-tetrahydronaphthalen-1-yl)phenyl)-1-oxa-8-azaspiro[4.5]decan-2-yl)methyl)-6-oxo-6,8-dihydro-2H,7H-spiro[furo[2,3-e]isoindole-3,4′-piperidin]-7-yl)piperidine-2,6-dione], at ER, the DC50 is > 100 nM. In addition, the IC50 in assay [1] was < 1 nM.

`O=C1CCC(N2Cc3c(ccc4c3OCC43CCN(CC4CCC5(CN(c6ccc([C@@H]7c8ccc(O)cc8CC[C@@H]7c7ccccc7)cc6)C5)OC4)CC3)C2=O)C(=O)N1` (stereo partly drawn) [Compound B335, 3-(1′-((2-(4-((1R,2S)-6-hydroxy-2-phenyl-1,2,3,4-tetrahydronaphthalen-1-yl)phenyl)-5-oxa-2-azaspiro[3.5]nonan-7-yl)methyl)-6-oxo-6,8-dihydro-2H,7H-spiro[furo[2,3-e]isoindole-3,4′-piperidin]-7-yl)piperidine-2,6-dione]: at ER, the DC50 was in the range of 10 to 100 nM. In addition, the IC50 in assay [1] was < 1 nM.

With `COc1c2c(cc3c1CN(C1CCC(=O)NC1=O)C3=O)CN(C(=O)CN1CCC3(CC1)CCN(c1ccc([C@@H]4c5ccc(O)cc5CC[C@@H]4c4ccccc4)cc1)CC3)C2` (stereo partly drawn) [Compound B210, 3-(6-(2-(9-(4-((1R,2S)-6-hydroxy-2-phenyl-1,2,3,4-tetrahydronaphthalen-1-yl)phenyl)-3,9-diazaspiro[5.5]undecan-3-yl)acetyl)-4-methoxy-1-oxo-3,5,6,7-tetrahydropyrrolo[3,4-f]isoindol-2(1H)-yl)piperidine-2,6-dione], the DC50 at ER was < 10 nM. Moreover, the IC50 in assay [1] (T47D cell line) was < 1 nM.

In the case of `CN(C(=O)c1ccc2c(c1)OC[C@H]1CN(C(=O)CN3CCC4(CC3)CN(c3ccc(C5c6ccc(O)cc6CCC5c5ccccc5)cc3)C4)CCN21)C1CCC(=O)NC1=O` (stereo in doubt) [Compound B223, (4aR)-N-(2,6-dioxopiperidin-3-yl)-3-(2-(2-(4-((1S,2R)-6-hydroxy-2-phenyl-1,2,3,4-tetrahydronaphthalen-1-yl)phenyl)-2,7-diazaspiro[3.5]nonan-7-yl)acetyl)-N-methyl-1,2,3,4,4a,5-hexahydrobenzo[b]pyrazino[1,2-d][1,4]oxazine-8-carboxamide], the DC50 on ER was 10 to 100 nM. Further, the IC50 in assay [1] (T47D cell line) was > 10 nM.

Consider `O=C1CC[C@H](N2Cc3c(ccc4c3OCC43CCN(CC4COC5(CCN(c6ccc([C@@H]7c8ccc(O)cc8CC[C@@H]7c7ccccc7)cc6)CC5)OC4)CC3)C2=O)C(=O)N1` [Compound B337, (S)-3-(1′-((9-(4-((1R,2S)-6-hydroxy-2-phenyl-1,2,3,4-tetrahydronaphthalen-1-yl)phenyl)-1,5-dioxa-9-azaspiro[5.5]undecan-3-yl)methyl)-6-oxo-6,8-dihydro-2H,7H-spiro[furo[2,3-e]isoindole-3,4′-piperidin]-7-yl)piperidine-2,6-dione], for which, at ER, the DC50 is < 10 nM. For the same compound, the IC50 in assay [1] was < 1 nM.

Take `O=C1CCC(N2Cc3cc4c(cc3C2=O)OC[C@@H]2CN(CC(=O)N3CCC5(CC3)CCN(c3ccc([C@H]6c7ccc8[nH]ncc8c7CC[C@H]6c6ccccc6)cc3)CC5)CCN42)C(=O)N1` (stereo partly drawn) [Compound B390, 3-((S)-8-oxo-3-(2-oxo-2-(9-(4-((6S,7R)-7-phenyl-6,7,8,9-tetrahydro-3H-benzo[e]indazol-6-yl)phenyl)-3,9-diazaspiro[5.5]undecan-3-yl)ethyl)-1,2,3,4,4a,5,8,10-octahydro-9H-pyrazino[1′,2′:4,5][1,4]oxazino[2,3-f]isoindol-9-yl)piperidine-2,6-dione]: the DC50 at ER was in the range of 10 to 100 nM. For the same compound, the IC50 in assay [1] (T47D cell line) was > 10 nM.

For the compound `O=C1CCC(N2Cc3c(ccc4c3OCC43CCN(C(=O)CN4CC5(CC(Nc6ccc([C@@H]7c8ccc(O)cc8CC[C@@H]7c7ccccc7)cc6)C5)C4)CC3)C2=O)C(=O)N1` (stereo partly drawn) [Compound B168, 3-(1′-(2-(6-((4-((1R,2S)-6-hydroxy-2-phenyl-1,2,3,4-tetrahydronaphthalen-1-yl)phenyl)amino)-2-azaspiro[3.3]heptan-2-yl)acetyl)-6-oxo-6,8-dihydro-2H,7H-spiro[furo[2,3-e]isoindole-3,4′-piperidin]-7-yl)piperidine-2,6-dione], the DC50 on ER was < 10 nM. Further, the IC50 in assay [1] (T47D cell line) was < 1 nM.

For `O=C1CCC(N2Cc3cc4c(cc3C2=O)OC[C@@H]2CN(CC3CC5(CCN(c6ccc([C@@H]7c8ccc(O)cc8CC[C@@H]7c7ccccc7)cc6)C5)C3)CCN42)C(=O)N1` (stereo partly drawn) [Compound B233, 3-((S)-3-((6-(4-((1R,2S)-6-hydroxy-2-phenyl-1,2,3,4-tetrahydronaphthalen-1-yl)phenyl)-6-azaspiro[3.4]octan-2-yl)methyl)-8-oxo-1,2,3,4,4a,5,8,10-octahydro-9H-pyrazino[1′,2′:4,5][1,4]oxazino[2,3-f]isoindol-9-yl)piperidine-2,6-dione], the DC50 at ER is > 100 nM. For the same compound, the IC50 in assay [1] (T47D cell line) is 1 to 10 nM.

With `O=C1CC[C@H](NC(=O)c2ccc3c(c2)OC[C@H]2CN(CC4CCN(c5ccc([C@@H]6c7ccc(O)cc7CC[C@@H]6c6ccccc6)cc5)CC4)CCN32)C(=O)N1` [Compound B256, (R)-N-((S)-2,6-dioxopiperidin-3-yl)-3-((1-(4-((1R,2S)-6-hydroxy-2-phenyl-1,2,3,4-tetrahydronaphthalen-1-yl)phenyl)piperidin-4-yl)methyl)-1,2,3,4,4a,5-hexahydrobenzo[b]pyrazino[1,2-d][1,4]oxazine-8-carboxamide], the DC50 at ER fell in the range of 10 to 100 nM. Besides, in assay [1] (T47D cell line), the IC50 lay in the range of 1 to 10 nM.

Take `O=C1CCC(N2Cc3cc4c(cc3C2=O)OC[C@@H]2CN(C(=O)[C@H]3CC[C@@H](CN5CC(Nc6ccc([C@@H]7c8ccc(O)cc8CC[C@@H]7c7ccccc7)cc6)C5)CC3)CCN42)C(=O)N1` (stereo partly drawn) [Compound B140, 3-((S)-3-((1R,4S)-4-((3-((4-((1R,2S)-6-hydroxy-2-phenyl-1,2,3,4-tetrahydronaphthalen-1-yl)phenyl)amino)azetidin-1-yl)methyl)cyclohexane-1-carbonyl)-8-oxo-1,2,3,4,4a,5,8,10-octahydro-9H-pyrazino[1′,2′:4,5][1,4]oxazino[2,3-f]isoindol-9-yl)piperidine-2,6-dione]: at ER, the DC50 was < 10 nM. In addition, the IC50 in assay [1] (T47D cell line) is < 1 nM.

Source of the values: patent publication US20260028354A1, “TETRAHYDRONAPHTHALENE DERIVATIVES AS ESTROGEN RECEPTOR DEGRADERS” (REGENT OF THE UNIVERSITY OF MICHIGAN, priority 2022, published 2026).
